One data set concerns the target T1, human mGlu2 receptor (Homo sapiens, UniProt Q14416).
T1 construct: expressed in transfected cells; host or cells: CHO cells (membrane preparation)
The data set is described as follows: [35S]GTPγS binding assay (mGluR2 negative allosteric modulation). The data set is classed as biochemical. Particulars: for IC50: membranes from CHO cells transfected with human mGlu2 receptor, glutamate 60 μM, pIC50 = −log IC50 (M), read-out: GTPγS - hmGluR2 anGT pIC50 (converted); for Emax: relative maximal effect: maximal % inhibition relative to the control glutamate response, read-out: GTPγS - hmGluR2 anGT Emax. In a few lines: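 Membranes from butyrate-stimulated CHO cells expressing human mGlu2; 7 μg protein in HEPES pH 7.4, 100 mM NaCl, 3 mM MgCl2, 10 μM GDP, 10 μg/ml saponin. Compound tested against EC80-equivalent glutamate; 0.1 nM [35S]GTPγS, 30 min, 30 °C; filtration, scintillation counting. Data as % of control glutamate response.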
Background: Binding of GTPγS marks nucleotide exchange on a G protein.

The subject of the next data set is Wiga rats. The data set is described as follows: Reserpine interaction test in rats. Particulars: Rattus norvegicus, po; Time 60; reserpine 10 mg/kg SC; Wiga rats; read-out: ED50, reversal of reserpine-induced ptosis. The data set is classed as in vivo, rat. As to the method:
4) Reserpine Interaction Test in Rats
It was investigated to what extent the mydriatic action of test compounds was sufficient to counteract the miosis induced by the monoamines-depleting agent reserpine (10 mg/kg; SC) in Wiga rats.
The effects are illustrated in FIG. 3. […] The reference mGlu2 NAMs RO-4995819 (40 mg/kg, p.o.), RO-4491533 (40 mg/kg, p.o.; 10 mg/kg, s.c.) and [CAS 579473-69-1]

In a further data set the test system is Male Wiga Wistar rats. The data set is described as follows: Reversal of LY-404039-induced decrease of palpebral opening in apomorphine-challenged rats. Type of data set: in vivo. Conditions: Rattus norvegicus, reversal of LY-404039-induced decrease of palpebral opening (cumulative score >26) in apomorphine challenged rats. How it is done: 6) Reversal of LY-404039-Induced Decrease of Palpebral Opening in Apomorphine-Challenged Rats.
Male Wiga Wistar rats (Crl:WI; Charles River Germany; 220±40 g) were housed under standard laboratory conditions (21±2° C.; 50-65% relative humidity; light-dark cycle set at 12 h; lights on at 6.00 h) and fasted overnight prior to the start of the experiments (tap water remained available ad libitum). During the test period, they were housed in individual cages. The local Ethical Committee approved all studies in compliance with the Declaration of Helsinki. Palpebral opening was scored every 5 min over the first hour after injection of apomorphine (1.0 mg/kg, i.v.) in animals either pretreated or not pretreated with LY-404039 (2.5 mg/kg, s.c.) at 1 h prior to the apomorphine injection. The animals were also pretreated with test compound or solvent at a predefined interval before apomorphine challenge. The score system was: (5) exophthalmos, (4) wide open, (3) open for three-quarters, (2) half open, (1) open for one-quarter, (0) closed. The scores for palpebral opening were cumulated over the 60-min observation period. A cumulative palpebral opening score >26 was selected for drug-induced reversal of the LY-404039-induced decrease of palpebral opening (occurrence in 3.2% of control animals pretreated with LY-404039 (n=154) versus in 99.5% of control rats not pretreated with LY-404039 (n=6335)).
In animals receiving apomorphine alone the median palpebral opening is 43 whereas in animals receiving apomorphine and LY-404039, the median palpebral opening is 17.

The test system of another data set is rats. The data set is described as follows: Reversal of the effect of the mGluR2 PAM JNJ-42153605 on scopolamine-induced hyperlocomotion. Type of data set: in vivo. Conditions: Rattus norvegicus, 1 h, Route PO, test compound 60 min before recording, criterion total distance >1500 cm. As to the method: 2) Reversal of the Effect of the mGluR2 PAM JNJ-42153605 on Scopolamine-Induced Hyperlocomotion Apparatus
Motor activity was measured in microprocessor-based motor activity arenas (closed gray PVC cylinders with a height of 39 cm and a diameter of 31 cm). Each arena was placed on an infrared LED (8×8 LEDs) lit box (white PVC squared box; 40×40 cm^2; height 12.5 cm. An infrared-sensitive tube camera and a white light source were mounted to the ceiling above the observation chamber to track the animal. The total distance traveled (cm) was recorded and analyzed using the Noldus Ethovision XT Video Tracking System (Version 7.0.418; Noldus, Wageningen, The Netherlands). The intensity of the light within the activity cages (measured in the centre at the level of the floor) ranged between 4 and 8 LUX.
The rats were pretreated with test compound or vehicle at 60 min before the start of the activity recordings and placed into individual cages. The rats were challenged with JNJ-42153605 (3-(cyclopropylmethyl)-7-(4-phenylpiperidin-1-yl)-8-(trifluoromethyl)[1,2,4]triazolo[4,3-a]pyridine; WO2010/130424; Cid et al. J. Med. Chem. 2012, 55, 8770-8789) (20 mg/kg, i.v.) 30 min before the start of the activity recording combined with scopolamine (0.16 mg/kg, i.v.) just before the start of the activity measurements Immediately after the injection of scopolamine, the rats were placed into the activity monitors and total distance travelled over the first 30 min was measured.
Animals receiving the combination of JNJ-42153605 and scopolamine (n=433) almost always travelled a distance of less than 1500 cm (<1500 cm) (only 2.5% of the control rats travelled a distance of more than 1500 cm (>1500 cm)). On the other hand, animals challenged with scopolamine alone (n=215) always travelled a total distance of more than 1500 cm (>1500 cm) and almost always (in 95.8% of the rats) a distance of more than 4400 cm (>4400 cm). […] For reversal of the inhibitory effect of JNJ-42153605 on the scopolamine-induced hyperlocomotion, two all-or-none criteria were adopted: (1) reversal: total distance >1500 cm; (2) normalization: total distance >4400 cm.

In data set [1] the test system is rat hippocampal brain slices. Kind of data set: Reversal of mGluR2-agonism (LY-354740-depressed fEPSP) in hippocampal brain slices. The data set is classed as cell-based. From the text:
7) Reversal of mGluR2-Agonism in Hippocampal Brain Slices Introduction
Electrophysiology recordings of field excitatory postsynaptic potentials (fEPSPs) in acute hippocampal brain slices represent a model for testing synaptic transmission and plasticity. The effect of Co. No. 1 on synaptic transmission and plasticity in dentate gyms synapses was investigated using this model.
Recordings of fEPSPs were made from hippocampal brain slices using a multi-electrode array (MEA) biochip, and 3-dimensional-(3D) tip electrodes, according to a standard protocol. These recordings were used to monitor glutamate-mediated synaptic transmission (FIG. 4).

T1 sequence (Q14416 19-872): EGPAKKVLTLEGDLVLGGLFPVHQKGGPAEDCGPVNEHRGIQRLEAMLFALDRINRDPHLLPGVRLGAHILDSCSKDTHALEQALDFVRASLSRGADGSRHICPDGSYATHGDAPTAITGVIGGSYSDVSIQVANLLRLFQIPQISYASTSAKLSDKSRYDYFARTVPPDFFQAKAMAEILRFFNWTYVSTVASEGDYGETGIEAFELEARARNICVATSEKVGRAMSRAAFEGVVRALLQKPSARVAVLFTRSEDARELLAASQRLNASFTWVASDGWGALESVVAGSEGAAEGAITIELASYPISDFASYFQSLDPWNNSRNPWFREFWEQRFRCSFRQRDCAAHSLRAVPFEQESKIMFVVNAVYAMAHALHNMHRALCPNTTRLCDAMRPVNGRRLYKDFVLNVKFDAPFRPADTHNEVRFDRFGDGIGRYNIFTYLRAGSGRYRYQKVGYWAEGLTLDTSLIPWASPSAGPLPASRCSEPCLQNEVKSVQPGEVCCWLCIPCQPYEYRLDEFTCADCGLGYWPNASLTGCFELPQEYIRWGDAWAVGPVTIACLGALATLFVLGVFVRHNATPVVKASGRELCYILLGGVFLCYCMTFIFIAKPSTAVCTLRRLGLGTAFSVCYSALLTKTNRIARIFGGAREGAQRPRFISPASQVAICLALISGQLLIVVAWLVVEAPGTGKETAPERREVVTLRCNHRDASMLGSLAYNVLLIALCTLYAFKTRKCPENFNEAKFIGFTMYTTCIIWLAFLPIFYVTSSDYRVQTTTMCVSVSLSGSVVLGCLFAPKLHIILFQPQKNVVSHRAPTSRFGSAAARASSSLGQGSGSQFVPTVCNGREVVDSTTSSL

A word on the Emax: it is the maximal effect, on the per cent scale that the assay sets. Broadly, the ED50 is the midpoint of the dose-response relation. Regarding `CCOc1cc(N2C[C@@H](C)n3ncc(-c4ccnc(C)c4)c3C2=O)ccc1C(F)(F)F` [compound 31], on human mGlu2 receptor, the IC50 was 4.37e-07 M and the Emax worked out at 107%. The ED50 in the data set on Wiga rats stood at 0.79 mg/kg. Further, the median effective dose (ED50) in the data set on Male Wiga Wistar rats (Route PO) was no less than 10 mg/kg.

Consider `CCOc1cc(N2CCn3ncc(-c4ccnc(C)c4)c3C2=O)ccc1C(F)(F)F` [compound 33], for which, at human mGlu2 receptor, the IC50 was 5.75e-07 M and the Emax is 99%. Besides, the ED50 in the data set with Wiga rats was determined as 0.5 mg/kg. The ED50 with Male Wiga Wistar rats (Route PO) was greater than 2.5 mg/kg.

A word on the melting point: it is the temperature of the solid-liquid transition. In turn, `CCc1cc(-c2cnn3c2C(=O)N(c2ccc(C(F)(F)F)cc2)C[C@@H]3C)ccn1` [compound 46, (7S)-3-(2-Ethyl-4-pyridyl)-7-methyl-5-[4-(trifluoromethyl)phenyl]-6,7-dihydropyrazolo[1,5-a]pyrazin-4-one] showed a melting point of 124.6 °C. Also, at human mGlu2 receptor, the IC50 is 6.31e-09 M and the Emax amounted to 105%. Moreover, the ED50 in the data set with Male Wiga Wistar rats (Route PO) came out at 0.32 mg/kg. Also, in the data set on rats, the ED50 was no less than 2.5 mg/kg.

Regarding `Cc1cc(-c2cnn3c2C(=O)N(c2ccc(Cl)cc2)C[C@@H]3C)ccn1` [compound 15], on human mGlu2 receptor, the IC50 is 2.63e-08 M and the Emax was determined as 103%. Also, in the data set on Male Wiga Wistar rats (Route PO), the ED50 worked out at 11.2 mg/kg. Further, in the data set on rats, the ED50 is 1.26 mg/kg.

As for `CNc1cc(-c2cnn3c2C(=O)N(c2ccc(C(F)(F)F)cc2)C[C@@H]3C)ccn1` [compound 147, (7S)-7-Methyl-3-[2-(methylamino)-4-pyridyl]-5-[4-(trifluoromethyl)phenyl]-6,7-dihydropyrazolo[1,5-a]pyrazin-4-one], at human mGlu2 receptor, the IC50 was 5.75e-09 M. The Emax at human mGlu2 receptor worked out at 106%. Further, the results for the ED50 in the data set with Male Wiga Wistar rats (Route PO) and in the data set with rats were 1.26 mg/kg and 0.5 mg/kg, respectively.

`COc1cc(-c2cnn3c2C(=O)N(c2ccc(C(F)(F)F)cc2)C[C@@H]3C)ccn1` [compound 45, (7S)-3-(2-Methoxy-4-pyridyl)-7-methyl-5-[4-(trifluoromethyl)phenyl]-6,7-dihydropyrazolo[1,5-a]pyrazin-4-one]: the ED50 in the data set on Male Wiga Wistar rats (Route PO) amounted to 0.79 mg/kg; with rats it was 1.26 mg/kg.

`N[C@@]1(C(=O)O)CC[C@H]2[C@H](C(=O)O)[C@H]21` [LY-354740, reference compound]: the “paired-pulse ratio (PPR)” value in data set [1] (1 μM LY-354740) was “increase of the paired-pulse ratio”. Also, in data set [1] (1 μM, within 15 min of application, dentate gyrus), the “depression of fEPSP” value is 50%.

Compound `CCNc1cc(-c2cnn3c2C(=O)N(c2ccc(C(F)(F)F)cc2)C[C@@H]3C)ccn1` [compound 44, (7S)-3-[2-(Ethylamino)-4-pyridyl]-7-methyl-5-[4-(trifluoromethyl)phenyl]-6,7-dihydropyrazolo[1,5-a]pyrazin-4-one] had a melting point greater than 300 °C. In addition, on human mGlu2 receptor, the IC50 was 6.17e-09 M and the Emax is 105%. The ED50 with Male Wiga Wistar rats (Route PO) turned out to be 0.5 mg/kg. Also, the ED50 with rats was no less than 2.5 mg/kg.

Take `Cc1cc(-c2cnn3c2C(=O)N(c2ccc(C(F)(F)F)c(C)c2)C[C@@H]3C)ccn1` [compound 5]: the ED50 was greater than 10 mg/kg in the data set on Male Wiga Wistar rats (Route PO) and no less than 2.5 mg/kg with rats.

In the case of `Cc1cc(-c2cnn3c2C(=O)N(c2ccc(Cl)cc2Cl)C[C@@H]3C)ccn1` [compound 167], at human mGlu2 receptor, the IC50 is 7.59e-07 M and the Emax turned out to be 105%. Besides, the ED50 in the data set with Male Wiga Wistar rats (Route PO) was greater than 40 mg/kg.

With `Cc1cc(-c2cnn3c2C(=O)N(c2ccc(C(F)(F)F)cc2)C[C@@H]3C)cc[n+]1[O-]` [compound 140, (7S)-7-Methyl-3-(2-methyl-1-oxido-pyridin-1-ium-4-yl)-5-[4-(trifluoromethyl)phenyl]-6,7-dihydropyrazolo[1,5-a]pyrazin-4-one], the melting point is 231.5 °C. For the same compound, at human mGlu2 receptor, the IC50 is 5.13e-07 M and the Emax was found to be 104%. Moreover, the ED50 in the data set on Male Wiga Wistar rats (Route PO) was 1.99 mg/kg.

Consider `Cc1cc(-c2cnn3c2C(=O)N(c2ccc(Cl)cc2C)C[C@@H]3C)ccn1` [compound 172], for which, at human mGlu2 receptor, the IC50 was 1.05e-06 M and the Emax was determined as 105%. Moreover, in the data set on Male Wiga Wistar rats (Route SC), the ED50 was greater than 40 mg/kg.

For the compound `CCOc1cc(N2C[C@H](C)n3ncc(-c4ccnc(C)c4)c3C2=O)ccc1C(F)(F)F` [compound 8], the IC50 on human mGlu2 receptor was 5.89e-09 M. Moreover, the Emax on human mGlu2 receptor worked out at 105%. For the same compound, the ED50 with Male Wiga Wistar rats (Route PO) and in the data set on rats was 5 mg/kg each time.

With `C[C@H]1CN(c2ccc(C(F)(F)F)cc2)C(=O)c2c(-c3ccncc3)cnn21` [compound 2, (7S)-7-Methyl-3-pyridin-4-yl-5-[4-(trifluoromethyl)phenyl]-6,7-dihydropyrazolo [1,5-a]pyrazin-4(5H)-one], the ED50 stood at 0.32 mg/kg in the data set on Wiga rats, 0.5 mg/kg in the data set with Male Wiga Wistar rats (Route PO) and 1.26 mg/kg with rats.
